The source of these data is patent US9453034B2, “C2-azaspiro iminothiazine dioxides as BACE inhibitors, compositions, and their use” (Merck Sharp & Dohme Corp., priority 2013, dated 2016).

For experiment [1], the target named is soluble human BACE1 catalytic domain (Homo sapiens (Human), UniProt P56817). Description: BACE1 HTRF FRET Assay. The format is biochemical. The following applies: Ki calculated from IC50 using the Cheng-Prusoff equation; QSY7-APPswe-Eu substrate, pH 5.0. The text has this:
Reagents: Na^+-Acetate pH 5.0; 1% Brij-35; Glycerol; Dimethyl Sulfoxide (DMSO);
A homogeneous time-resolved FRET assay can be used to determine IC50 values for inhibitors of the soluble human BACE1 catalytic domain. This assay monitors the increase of 620 nm fluorescence that resulted from BACE1 cleavage of an APPswedish APP^swe mutant peptide FRET substrate (QSY7-[…]-Europium-amide). This substrate contains an N-terminal QSY7 moiety that serves as a quencher of the C-terminal Europium fluorophore (620 nm Em). […] Inhibition of BACE1 cleavage of the QSY7-APP^swe-Eu substrate by inhibitors is manifested as a suppression of 620 nm fluorescence.
Reactions are initiated by addition of 10 μl of 600 nM QSY7-APP^swe-Eu substrate (200 nM final) to give a final reaction volume of 30 μl in a 384 well Nunc HTRF plate. The reactions are incubated at 30° C. for 1.5 hours. The 620 nm fluorescence is then read on a Rubystar HTRF plate reader (BMG Labtechnologies) using a 50 millisecond delay followed by a 400 millisecond acquisition time window. Inhibitor IC50 values are derived from non-linear regression analysis of concentration response curves.

In experiment [2] the target is purified human autoBACE-2 (Homo sapiens (Human), UniProt Q9Y5Z0). Description: BACE-2 Assay (BACE-HTRF assay). It is filed as biochemical. To be noted: Ki calculated from IC50 using the Cheng-Prusoff equation; QSY7-EISEVNLDAEFC-Eu-amide substrate, pH 5.0; read-out: BACE2 Ki. The method, then:
Inhibitor IC50s at purified human autoBACE-2 are determined in a time-resolved endpoint proteolysis assay that measures hydrolysis of the QSY7-EISEVNLDAEFC-Eu-amide FRET peptide substrate (BACE-HTRF assay). BACE-mediated hydrolysis of this peptide results in an increase in relative fluorescence (RFU) at 620 nm after excitation with 320 nm light. Inhibitor compounds, prepared at 3× the desired final concentration in 1×BACE assay buffer (20 mM sodium acetate pH 5.0, 10% glycerol, 0.1% Brij-35) supplemented with 7.5% DMSO are pre-incubated with an equal volume of autoBACE-2 enzyme diluted in 1×BACE assay buffer (final enzyme concentration 1 nM) in black 384-well NUNC plates for 30 minutes at 30° C. The assay is initiated by addition of an equal volume of the QSY7-EISEVNLDAEFC-Eu-amide substrate (200 nM final concentration, Km=8 μM […] for autoBACE-2) prepared in 1×BACE assay buffer supplemented with 7.5% DMSO and incubated for 90 minutes at 30° C. DMSO is present at 5% final concentration in the assay. Following laser excitation of sample wells at 320 nm, the fluorescence signal at 620 nm is collected for 400 ms following a 50 μs delay on a RUBYstar HTRF plate reader (BMG Labtechnologies). Raw RFU data is normalized to maximum (1.0 nM BACE/DMSO) and minimum (no enzyme/DMSO) RFU values. IC50s are determined by nonlinear regression analysis (sigmoidal dose response, variable slope) of percent inhibition data with minimum and maximum values set to 0 and 100 percent respectively. Similar IC50s are obtained when using raw RFU data. The Ki values are calculated from the IC50 using the Cheng-Prusoff equation.

Chain of soluble human BACE1 catalytic domain (P56817 75-416): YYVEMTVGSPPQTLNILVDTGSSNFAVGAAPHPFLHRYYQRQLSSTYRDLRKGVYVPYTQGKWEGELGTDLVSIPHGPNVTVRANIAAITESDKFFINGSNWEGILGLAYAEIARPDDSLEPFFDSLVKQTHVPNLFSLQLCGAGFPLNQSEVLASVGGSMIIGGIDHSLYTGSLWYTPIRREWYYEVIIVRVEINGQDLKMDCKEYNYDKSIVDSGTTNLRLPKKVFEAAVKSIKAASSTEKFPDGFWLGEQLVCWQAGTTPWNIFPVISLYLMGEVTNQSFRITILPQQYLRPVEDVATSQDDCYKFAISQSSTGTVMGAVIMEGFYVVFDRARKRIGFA
Chain of purified human autoBACE-2 (Q9Y5Z0 63-473): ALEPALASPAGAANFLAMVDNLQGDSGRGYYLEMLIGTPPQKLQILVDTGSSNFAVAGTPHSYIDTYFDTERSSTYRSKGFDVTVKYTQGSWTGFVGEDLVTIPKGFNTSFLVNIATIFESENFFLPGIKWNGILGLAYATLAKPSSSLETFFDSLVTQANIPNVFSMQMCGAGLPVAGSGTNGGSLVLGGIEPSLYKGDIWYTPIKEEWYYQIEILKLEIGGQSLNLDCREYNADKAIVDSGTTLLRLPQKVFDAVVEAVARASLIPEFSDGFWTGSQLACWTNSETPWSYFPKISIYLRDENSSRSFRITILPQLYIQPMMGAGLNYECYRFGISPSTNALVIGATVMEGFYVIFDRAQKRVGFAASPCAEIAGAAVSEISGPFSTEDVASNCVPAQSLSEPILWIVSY

Broadly, the Ki is the equilibrium dissociation constant of an inhibitor or competing ligand from its target. Consider `COc1cnc(C(=O)Nc2ccc(F)c([C@]3(C)CS(=O)(=O)C4(CN(C)C4)C(=N)N3)c2)cn1` [Example 4, N-{4-fluoro-3-[(7R)-9-imino-2,7-dimethyl-5,5-dioxido-5-thia-2,8-diazaspiro[3.5]non-7-yl]phenyl}-5-methoxypyrazine-2-carboxamide], for which the Ki in experiment [1] is 7.9 nM; in experiment [2] it was 6.2 nM.

Turning to `CC#CCOc1ccc(C(=O)Nc2ccc(F)c([C@]3(C)CS(=O)(=O)C4(CN(C)C4)C(=N)N3)c2)nc1` [Example 12, 5-(but-2-yn-1-yloxy)-N-{4-fluoro-3-[(7R)-9-imino-2,7-dimethyl-5,5-dioxido-5-thia-2,8-diazaspiro[3.5]non-7-yl]phenyl}pyridine-2-carboxamide], the Ki in experiment [1] is 2.3 nM; in experiment [2], 30 nM.

Take `COc1ccc(C(=O)Nc2ccc(F)c([C@]3(C)CS(=O)(=O)C4(CNC4)C(=N)N3)c2)nc1` [Example 36d, (R)—N-(4-fluoro-3-(9-imino-7-methyl-5,5-dioxido-5-thia-2,8-diazaspiro[3.5]nonan-7-yl)phenyl)-5-methoxypicolinamide]: the Ki in experiment [1] was 22 nM; in experiment [2], 16 nM.

For `C[C@@]1(c2cc(NC(=O)c3ccc(C#N)cn3)ccc2F)CS(=O)(=O)C2(CNC2)C(=N)N1` [Example 36c, (R)-5-cyano-N-(4-fluoro-3-(9-imino-7-methyl-5,5-dioxido-5-thia-2,8-diazaspiro[3.5]nonan-7-yl)phenyl)picolinamide], the inhibition constant Ki in experiment [1] is 3.7 nM; in experiment [2] it was 2.6 nM.

On to `CC#CCOc1ccc(C(=O)Nc2ccc(F)c([C@]3(C)CS(=O)(=O)C4(CCN(C)CC4)C(=N)N3)c2)nc1` [Example 36, 5-(but-2-yn-1-yloxy)-N-{4-fluoro-3-[(3R)-5-imino-3,9-dimethyl-1,1-dioxido-1-thia-4,9-diazaspiro[5.5]undec-3-yl]phenyl}pyridine-2-carboxamide], for which the results for the inhibition constant (Ki) in experiment [1] and in experiment [2] were 2.3 nM and 30 nM, respectively.

As for `CN1CCC2(CC1)C(=N)N[C@](C)(c1cc(NC(=O)c3ccc(OC(F)(F)F)cn3)ccc1F)CS2(=O)=O` [Example 30], the Ki in experiment [1] was 15 nM; in experiment [2] it was 52 nM.

Take `CN1CCC2(CC1)C(=N)N[C@](C)(c1cc(NC(=O)c3ccc(Cl)cn3)ccc1F)CS2(=O)=O` [Example 29, (R)-5-chloro-N-(4-fluoro-3-(5-imino-3,9-dimethyl-1,1-dioxido-1-thia-4,9-diazaspiro[5.5]undecan-3-yl)phenyl)picolinamide]: the Ki in experiment [1] was 12 nM; in experiment [2], 3 nM.

As for `COc1ccc(C(=O)Nc2ccc(F)c([C@]3(C)CS(=O)(=O)C4(CN(c5ccc([N+](=O)[O-])cc5)C4)C(=N)N3)c2)nc1` [Example 42, (R)—N-(4-fluoro-3-(9-imino-7-methyl-2-(4-nitrophenyl)-5,5-dioxido-5-thia-2,8-diazaspiro[3.5]nonan-7-yl)phenyl)-5-methoxypicolinamide], the Ki in experiment [1] was 1.4 nM; in experiment [2], 0.32 nM.

`Cc1cc(C#N)cnc1C(=O)Nc1ccc(F)c([C@]2(C)CS(=O)(=O)C3(CCN(C)CC3)C(=N)N2)c1` [Example 35, 5-cyano-N-{4-fluoro-3-[(3R)-5-imino-3,9-dimethyl-1,1-dioxido-1-thia-4,9-diazaspiro[5.5]undec-3-yl]phenyl}-3-methylpyridine-2-carboxamide]: the Ki was 35 nM in experiment [1] and 24 nM in experiment [2].

For the compound `COc1cnc(C(=O)Nc2ccc(F)c([C@]3(C)CS(=O)(=O)C4(CN(C)C4)C(=N)N3)c2)c(C)n1` [Example 10, N-{4-fluoro-3-[(7R)-9-imino-2,7-dimethyl-5,5-dioxido-5-thia-2,8-diazaspiro[3.5]non-7-yl]phenyl}-5-methoxy-3-methylpyrazine-2-carboxamide], the Ki is 10.4 nM in experiment [1] and 4.9 nM in experiment [2].
